Literature values, collected in patent US20250302745A1, “COMPOSITIONS COMPRISING VANCOMYCIN” (Arecor Limited, priority 2022, published 2025).

Tested on: animal
Settings: excipients of VancoReady; black box warning

Molecule	finding in animal reproductive studies
CC(=O)N[C@H](C)C(=O)O [N-acetyl-D-alanine]	cause fetal malformations
PEG400	cause fetal malformations
